In ChEMBL document CHEMBL1131923, “Synthesis and structure-activity relationships of a series of novel thiazoles as inhibitors of aminoacyl-tRNA synthetases” (Bioorg Med Chem Lett, 1999):

How the values were obtained:
[1] = target: T1, Isoleucine--tRNA ligase, cytoplasmic (Homo sapiens, UniProt P41252); test: Compound tested for the inhibition of human isoleucyl-tRNA synthetase
T1 sequence (P41252 whole entry): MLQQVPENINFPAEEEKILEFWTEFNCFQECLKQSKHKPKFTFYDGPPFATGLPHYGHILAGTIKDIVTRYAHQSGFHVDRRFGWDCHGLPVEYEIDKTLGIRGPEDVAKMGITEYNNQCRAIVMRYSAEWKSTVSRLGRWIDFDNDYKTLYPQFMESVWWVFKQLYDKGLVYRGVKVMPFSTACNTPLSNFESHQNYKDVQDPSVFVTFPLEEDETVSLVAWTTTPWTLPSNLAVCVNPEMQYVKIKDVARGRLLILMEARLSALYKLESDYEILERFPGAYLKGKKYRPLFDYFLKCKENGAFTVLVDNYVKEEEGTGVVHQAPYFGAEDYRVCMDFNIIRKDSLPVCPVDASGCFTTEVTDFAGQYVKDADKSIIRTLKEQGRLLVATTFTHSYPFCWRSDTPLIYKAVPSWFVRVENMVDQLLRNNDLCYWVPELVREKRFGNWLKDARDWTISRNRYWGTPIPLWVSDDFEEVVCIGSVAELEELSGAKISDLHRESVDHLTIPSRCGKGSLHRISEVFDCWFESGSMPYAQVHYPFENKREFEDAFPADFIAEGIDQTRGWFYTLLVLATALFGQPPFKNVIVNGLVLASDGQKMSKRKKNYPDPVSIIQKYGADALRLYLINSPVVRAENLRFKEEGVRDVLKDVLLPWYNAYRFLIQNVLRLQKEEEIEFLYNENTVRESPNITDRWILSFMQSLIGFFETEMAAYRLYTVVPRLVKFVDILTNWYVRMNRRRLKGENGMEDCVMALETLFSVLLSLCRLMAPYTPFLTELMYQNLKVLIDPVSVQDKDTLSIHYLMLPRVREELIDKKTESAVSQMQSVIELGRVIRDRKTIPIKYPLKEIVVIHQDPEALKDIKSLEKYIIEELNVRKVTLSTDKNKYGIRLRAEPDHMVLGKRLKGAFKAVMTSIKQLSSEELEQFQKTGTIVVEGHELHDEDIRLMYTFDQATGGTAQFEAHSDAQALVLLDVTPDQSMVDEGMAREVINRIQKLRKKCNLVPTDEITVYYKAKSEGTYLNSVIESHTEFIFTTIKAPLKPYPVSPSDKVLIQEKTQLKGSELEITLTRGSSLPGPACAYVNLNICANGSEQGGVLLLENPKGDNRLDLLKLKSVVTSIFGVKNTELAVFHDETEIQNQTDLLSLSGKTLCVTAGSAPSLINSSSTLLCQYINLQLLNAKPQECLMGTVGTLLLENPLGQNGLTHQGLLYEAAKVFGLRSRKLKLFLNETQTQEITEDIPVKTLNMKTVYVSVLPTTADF

[2] = Selectivity ratio of human to that of Escherichia coli was determined for isoleucyl-tRNA synthetase
[3] = target: T2, Isoleucine--tRNA ligase (Staphylococcus aureus, UniProt P41972); test: Compound tested for the inhibition of Staphylococcus aureus isoleucyl-tRNA synthetase
T2 sequence (P41972 whole entry): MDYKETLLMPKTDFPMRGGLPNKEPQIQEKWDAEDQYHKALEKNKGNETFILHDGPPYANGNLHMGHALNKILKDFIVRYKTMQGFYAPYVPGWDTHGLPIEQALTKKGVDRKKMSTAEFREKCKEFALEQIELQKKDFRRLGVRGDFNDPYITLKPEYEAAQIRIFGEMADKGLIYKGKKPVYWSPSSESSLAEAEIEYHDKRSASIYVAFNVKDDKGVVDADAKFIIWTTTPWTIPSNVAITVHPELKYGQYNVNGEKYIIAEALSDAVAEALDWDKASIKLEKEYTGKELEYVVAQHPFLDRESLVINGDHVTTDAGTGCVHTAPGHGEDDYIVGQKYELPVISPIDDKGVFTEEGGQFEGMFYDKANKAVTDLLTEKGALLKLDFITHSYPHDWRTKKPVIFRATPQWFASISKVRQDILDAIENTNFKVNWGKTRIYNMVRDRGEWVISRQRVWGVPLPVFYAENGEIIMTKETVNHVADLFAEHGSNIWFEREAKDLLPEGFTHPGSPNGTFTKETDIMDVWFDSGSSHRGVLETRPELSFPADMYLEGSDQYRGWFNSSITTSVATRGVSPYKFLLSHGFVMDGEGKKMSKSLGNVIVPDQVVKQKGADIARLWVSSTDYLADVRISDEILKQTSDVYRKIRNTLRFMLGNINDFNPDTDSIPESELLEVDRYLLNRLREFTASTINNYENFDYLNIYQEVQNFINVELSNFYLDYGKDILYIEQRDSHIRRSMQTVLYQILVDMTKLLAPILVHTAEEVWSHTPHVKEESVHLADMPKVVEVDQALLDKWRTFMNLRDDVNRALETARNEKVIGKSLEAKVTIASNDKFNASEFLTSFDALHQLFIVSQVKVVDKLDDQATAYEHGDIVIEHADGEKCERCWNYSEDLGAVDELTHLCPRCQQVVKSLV

[4] = target: S. aureus MRSA LeuRS (Staphylococcus aureus, UniProt P67513); test: Compound tested for the inhibition of Staphylococcus aureus Leucyl-tRNA synthetase
Chain of S. aureus MRSA LeuRS (P67513 whole entry, looked up): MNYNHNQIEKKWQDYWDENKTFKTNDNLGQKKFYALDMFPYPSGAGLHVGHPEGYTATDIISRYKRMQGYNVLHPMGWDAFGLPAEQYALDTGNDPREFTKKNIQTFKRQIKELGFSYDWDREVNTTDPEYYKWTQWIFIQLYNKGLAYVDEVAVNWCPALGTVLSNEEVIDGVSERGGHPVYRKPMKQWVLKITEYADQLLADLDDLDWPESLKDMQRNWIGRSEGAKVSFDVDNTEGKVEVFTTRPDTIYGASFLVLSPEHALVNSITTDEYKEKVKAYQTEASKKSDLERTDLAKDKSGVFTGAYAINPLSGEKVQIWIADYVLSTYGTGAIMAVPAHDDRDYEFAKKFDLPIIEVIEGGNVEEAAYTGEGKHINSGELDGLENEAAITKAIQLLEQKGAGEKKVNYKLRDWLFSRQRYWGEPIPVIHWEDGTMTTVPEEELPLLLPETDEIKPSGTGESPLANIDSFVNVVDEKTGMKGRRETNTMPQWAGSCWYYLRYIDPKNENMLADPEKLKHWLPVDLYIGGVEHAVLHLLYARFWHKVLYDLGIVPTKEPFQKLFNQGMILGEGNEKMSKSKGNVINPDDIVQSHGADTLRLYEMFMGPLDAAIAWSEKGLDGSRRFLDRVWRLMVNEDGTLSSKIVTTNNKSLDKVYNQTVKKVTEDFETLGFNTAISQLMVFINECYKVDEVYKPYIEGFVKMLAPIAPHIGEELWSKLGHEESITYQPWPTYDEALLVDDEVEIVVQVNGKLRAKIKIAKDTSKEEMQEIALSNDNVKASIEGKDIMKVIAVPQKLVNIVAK

[5] = target: Leucine--tRNA ligase, cytoplasmic (Homo sapiens, UniProt Q9P2J5); test: Compound tested for the inhibition of human Leucyl-tRNA synthetase
Chain of Leucine--tRNA ligase, cytoplasmic (Q9P2J5 whole entry): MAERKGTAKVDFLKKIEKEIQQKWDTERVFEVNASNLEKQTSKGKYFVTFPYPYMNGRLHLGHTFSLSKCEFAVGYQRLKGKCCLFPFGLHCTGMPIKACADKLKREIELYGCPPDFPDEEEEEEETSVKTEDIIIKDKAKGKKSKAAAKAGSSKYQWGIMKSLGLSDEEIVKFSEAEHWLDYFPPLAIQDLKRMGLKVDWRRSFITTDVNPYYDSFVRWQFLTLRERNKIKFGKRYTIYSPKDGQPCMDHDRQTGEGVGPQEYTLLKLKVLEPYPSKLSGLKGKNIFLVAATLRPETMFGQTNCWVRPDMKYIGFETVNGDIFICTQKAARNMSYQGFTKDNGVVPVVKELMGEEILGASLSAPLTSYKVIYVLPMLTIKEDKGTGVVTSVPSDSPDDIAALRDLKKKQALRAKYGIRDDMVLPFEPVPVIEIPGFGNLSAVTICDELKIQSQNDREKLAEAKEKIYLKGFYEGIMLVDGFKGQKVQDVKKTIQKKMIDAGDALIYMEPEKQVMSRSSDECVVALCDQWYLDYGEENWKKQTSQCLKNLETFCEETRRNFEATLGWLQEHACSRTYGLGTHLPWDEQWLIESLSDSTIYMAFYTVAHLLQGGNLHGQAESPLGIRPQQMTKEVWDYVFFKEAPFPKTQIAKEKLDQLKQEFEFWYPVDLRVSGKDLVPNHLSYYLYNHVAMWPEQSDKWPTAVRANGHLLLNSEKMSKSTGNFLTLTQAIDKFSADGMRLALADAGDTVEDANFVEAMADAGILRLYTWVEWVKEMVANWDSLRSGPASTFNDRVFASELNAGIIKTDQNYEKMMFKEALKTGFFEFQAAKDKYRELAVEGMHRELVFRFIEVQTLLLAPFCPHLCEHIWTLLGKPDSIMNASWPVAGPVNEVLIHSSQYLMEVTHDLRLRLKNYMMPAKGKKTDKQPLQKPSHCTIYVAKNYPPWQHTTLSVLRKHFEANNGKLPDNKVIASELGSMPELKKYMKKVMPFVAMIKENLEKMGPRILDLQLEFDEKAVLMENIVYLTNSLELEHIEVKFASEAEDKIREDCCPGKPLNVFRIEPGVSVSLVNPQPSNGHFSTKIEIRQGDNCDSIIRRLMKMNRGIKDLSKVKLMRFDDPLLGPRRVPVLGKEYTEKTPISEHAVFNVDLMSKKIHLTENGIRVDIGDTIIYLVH

[6] = Selectivity ratio of human to that of Escherichia coli was determined for leucyl-tRNA synthetase

| SMILES | IC50 [1] [nM] | Selectivity [2] | IC50 [3] [nM] | IC50 [4] [nM] | IC50 [5] [nM] | Selectivity [6] |
| --- | --- | --- | --- | --- | --- | --- |
| CCC(C)[C@H](N)C(=O)NS(=O)(=O)OC[C@H]1O[C@@H](c2nc(-c3ccc(Oc4ccccc4)cc3)cs2)[C@H](O)[C@@H]1O (stereo not given in full) | 370 | 8.2 | 270 | – | – | – |
| CC[C@H](C)[C@H](N)C(=O)NS(=O)(=O)OC[C@H]1O[C@@H](c2nc(-c3ccccc3)cs2)[C@H](O)[C@@H]1O | 330 | – | 8000 | – | – | – |
| CC(C)C[C@H](N)C(=O)NS(=O)(=O)OC[C@H]1O[C@@H](c2nc(-c3ccc(Oc4ccccc4)cc3)cs2)[C@H](O)[C@@H]1O | – | – | – | > 54 | 600 | 375 |
| CCC(C)[C@H](N)C(=O)NS(=O)(=O)OC[C@H]1O[C@@H](c2nc(-c3cccc(OC)c3)cs2)[C@H](O)[C@@H]1O (stereo not given in full) | 34 | 2.3 | 50 | – | – | – |
| CCC(C)[C@H](N)C(=O)NS(=O)(=O)OC[C@H]1O[C@@H](c2nc(-c3ccccc3OC)cs2)[C@H](O)[C@@H]1O (stereo not given in full) | 100 | 3.3 | 300 | – | – | – |
| CCC(C)[C@H](N)C(=O)NS(=O)(=O)OC[C@H]1O[C@@H](c2nc(CCc3ccccc3)cs2)[C@H](O)[C@@H]1O (stereo not given in full) | 300 | 10 | 40 | – | – | – |
| CC(C)C[C@H](N)C(=O)NS(=O)(=O)OC[C@H]1O[C@@H](c2nc(CCc3ccc(Oc4ccccc4)cc3)cs2)[C@H](O)[C@@H]1O | – | – | – | 100 | 1150 | 192 |
| CCC(C)[C@H](N)C(=O)NS(=O)(=O)OC[C@H]1O[C@@H](c2nc(CCc3ccc(Oc4ccccc4)cc3)cs2)[C@H](O)[C@@H]1O (stereo not given in full) | 1020 | 9.3 | 120 | – | – | – |
| CCC(C)[C@H](N)C(=O)NS(=O)(=O)OC[C@H]1O[C@@H](c2nc(-c3ccc(OC)cc3)cs2)[C@H](O)[C@@H]1O (stereo not given in full) | 200 | 2 | 100 | – | – | – |
| CCC(C)[C@H](N)C(=O)NS(=O)(=O)OC[C@H]1O[C@@H](c2nc(-c3ccc4cc(OC)ccc4c3)cs2)[C@H](O)[C@@H]1O (stereo not given in full) | 400 | 4 | 130 | – | – | – |
| CC(C)C[C@H](N)C(=O)NS(=O)(=O)OC[C@H]1O[C@@H](c2nc(CCc3ccccc3)cs2)[C@H](O)[C@@H]1O | – | – | – | 90 | 730 | > 365 |
| CCC(C)[C@H](N)C(=O)NS(=O)(=O)OC[C@H]1O[C@@H](c2nc(-c3cc(C#N)co3)cs2)[C@H](O)[C@@H]1O (stereo not given in full) | 120 | 1 | 240 | – | – | – |
